Laboratory results reported in article PMC4209162, “Specific aromatic foldamers potently inhibit spontaneous and seeded Aβ42 and Aβ43 fibril assembly” (Biochemical Journal, 2014).
Entries after “also recorded” stand apart in the source; their conditions may differ.

How the values were obtained:
Aβ43 oligomers = Aβ43 oligomers (Homo sapiens, UniProt P05067); assay: A11-reactive Aβ43 conformers (ELISA); type: biochemical; details: Aβ43 5 μM, foldamer 20 μM, 25°C; for Effect on A11-reactive Aβ43 conformers after 0.5 h: 0.5 h (end of lag phase); for Effect on A11-reactive Aβ43 conformers after 4 h: 4 h (endpoint of fibrillization)
Aβ43 [1] = biological target: T1, Aβ43 (Homo sapiens, UniProt P05067); assay: Spontaneous Aβ43 fibrillization (ThT fluorescence, EM); type: biochemical; details: 25°C, ThT
Aβ42 oligomers = Aβ42 oligomers (Homo sapiens, UniProt P05067); assay: A11-reactive Aβ42 conformers (ELISA); type: biochemical; details: Aβ42 5 μM, foldamer 20 μM, 25°C; for Effect on A11-reactive Aβ42 conformers after 0.5 h: 0.5 h (end of lag phase); for Effect on A11-reactive Aβ42 conformers after 4 h: 4 h (endpoint of fibrillization)
[2] = system: SH-SY5Y human neuroblastoma cells; assay: Toxicity of Aβ42 conformers to SH-SY5Y cells (MTT reduction, LDH release); type: cell-based; details: 24 h, MTT and LDH; for Effect on toxicity of Aβ42 conformers after 0.5 h of assembly: Aβ42 5 μM assembled with foldamer 20 μM for 0.5 h; for Effect on toxicity of Aβ42 conformers after 4 h of assembly: Aβ42 5 μM assembled with foldamer 20 μM for 4 h
Method: (§1) SH-SY5Y human neuroblastoma cells were maintained in Dulbecco's modified Eagle's medium (DMEM) plus 10 mM Hepes, 10% FBS, 4 mM glutamine, penicillin (200 units/ml) and streptomycin (200 μg/ml) in 5% CO2 at 37°C. Cells were differentiated in serum-free DMEM with N2 supplement and 10 μM all-trans-retinoic acid before use. Cells were plated at (10000 cells/well) in 96-well plates and grown overnight. Medium was removed and Aβ conformers or controls were added and cells were incubated for 24 h at 37°C. Toxicity was assessed using an MTT kit (Tox-1; Sigma) or via lactate dehydrogenase (LDH) release using the CytoTox-ONE™ kit (Promega). Toxicity values were normalized to the buffer control without Aβ.

Aβ42 [3] = biological target: T2, Aβ42 (Homo sapiens, UniProt P05067); assay: Seeded Aβ42 fibrillization (ThT fluorescence, EM); type: biochemical; details: for Inhibition of seeded Aβ42 fibrillization, different assembly conditions: Aβ prepared without DMSO, PBE pH 8, Aβ42 5 μM plus seed 0.1 μM monomer, foldamer 20 μM, 16 h
[4] = system: SH-SY5Y human neuroblastoma cells; assay: Toxicity of Aβ43 conformers to SH-SY5Y cells (MTT reduction, LDH release); type: cell-based; details: 24 h, MTT and LDH; for Effect on toxicity of Aβ43 conformers after 0.5 h of assembly: Aβ43 5 μM assembled with foldamer 20 μM for 0.5 h; for Effect on toxicity of Aβ43 conformers after 4 h of assembly: Aβ43 5 μM assembled with foldamer 20 μM for 4 h
Method: as §1

Aβ43 [5] = biological target: T1, Aβ43; assay: Seeded Aβ43 fibrillization (ThT fluorescence, EM); type: biochemical; details: ThT
Aβ42 [6] = biological target: T2, Aβ42; assay: Spontaneous Aβ42 fibrillization (ThT fluorescence, EM); type: biochemical; details: 25°C; for Inhibition of spontaneous Aβ42 fibrillization: Aβ42 5 μM, foldamer 10 μM, 8 h, agitation, ThT fluorescence (EM 4 h); for Inhibition of spontaneous Aβ42 fibrillization, different assembly conditions: Aβ prepared without DMSO, PBE pH 8, Aβ42 5 μM, foldamer 20 μM, 16 h, ThT
FUS = biological target: T3, FUS (Homo sapiens, UniProt P35637); assay: FUS aggregation (turbidity, absorbance at 395 nm); type: biochemical; details: GST-FUS 5 μM, foldamer 20 μM, plus TEV protease, 25°C, 0–90 min
T3 sequence (P35637 1-526): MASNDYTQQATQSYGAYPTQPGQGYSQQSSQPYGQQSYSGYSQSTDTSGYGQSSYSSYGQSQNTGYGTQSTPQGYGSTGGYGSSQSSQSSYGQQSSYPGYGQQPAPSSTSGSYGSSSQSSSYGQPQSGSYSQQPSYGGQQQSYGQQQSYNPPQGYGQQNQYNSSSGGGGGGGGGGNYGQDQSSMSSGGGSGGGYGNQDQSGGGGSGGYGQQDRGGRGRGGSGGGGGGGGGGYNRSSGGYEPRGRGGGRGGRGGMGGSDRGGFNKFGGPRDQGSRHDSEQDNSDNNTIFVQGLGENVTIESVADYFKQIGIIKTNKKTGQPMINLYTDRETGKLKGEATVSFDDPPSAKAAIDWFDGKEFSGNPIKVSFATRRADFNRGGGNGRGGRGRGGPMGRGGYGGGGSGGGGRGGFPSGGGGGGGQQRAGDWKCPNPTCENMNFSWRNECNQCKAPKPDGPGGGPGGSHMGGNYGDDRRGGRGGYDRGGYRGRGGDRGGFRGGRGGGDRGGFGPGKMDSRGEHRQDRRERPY
Method: GST–TEV–FUS was purified as described. Aggregation was initiated by addition of tobbaco etch virus (TEV) protease to GST–TEV–FUS (5 μM) plus or minus foldamer (20 μM) in assembly buffer (50 mM Tris/HCl pH 8, 0.2 M trehalose and 20 mM glutathione). Aggregation was for 0–90 min at 25°C without agitation in a 96-well plate and was assessed by turbidity (absorbance at 395 nm) using a Tecan Infinite M1000 plate reader. No aggregation occurred unless TEV protease was added to separate GST from FUS [58].

Aβ42 fibrils = Aβ42 fibrils (Homo sapiens, UniProt P05067); assay: Disassembly of preformed Aβ42 fibrils; type: biochemical; details: foldamer in 4-fold molar excess, 24 h (results not shown)
Chain of Aβ42 fibrils (P05067 672-713 limits assumed): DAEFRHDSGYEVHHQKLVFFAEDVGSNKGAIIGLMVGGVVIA

T1 sequence (P05067 672-714 limits assumed): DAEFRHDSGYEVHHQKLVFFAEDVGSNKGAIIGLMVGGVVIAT
Chain of Aβ43 oligomers (P05067 672-714 limits assumed): as above
T2 sequence (P05067 672-713 limits assumed): as the sequence (P05067 672-713 limits assumed) above
Chain of Aβ42 oligomers (P05067 672-713 limits assumed): as above

(Cit-Sal)4-CONH2
Effect on A11-reactive Aβ43 conformers after 0.5 h (Aβ43 oligomers): had no effect | Effect on A11-reactive Aβ43 conformers after 4 h (Aβ43 oligomers): had no effect | Inhibition of spontaneous Aβ43 fibrillization, different assembly conditions (Aβ43 [1]; Aβ prepared without DMSO, PBE pH 8, Aβ43 5 μM, foldamer 20 μM, 16 h): had no effect | Effect on A11-reactive Aβ42 conformers after 0.5 h (Aβ42 oligomers): had no effect | Effect on A11-reactive Aβ42 conformers after 4 h (Aβ42 oligomers): had no effect | Effect on toxicity of Aβ42 conformers after 0.5 h of assembly [2]: had no effect on toxicity | Effect on toxicity of Aβ42 conformers after 4 h of assembly [2]: had no effect on toxicity | Inhibition of seeded Aβ42 fibrillization, different assembly conditions (Aβ42 [3]): had no effect | Effect on toxicity of Aβ43 conformers after 0.5 h of assembly [4]: had no effect on toxicity | Effect on toxicity of Aβ43 conformers after 4 h of assembly [4]: had no effect on toxicity | Inhibition of seeded Aβ43 fibrillization, different assembly conditions (Aβ43 [5]; Aβ prepared without DMSO, PBE pH 8, Aβ43 5 μM plus seed 0.1 μM monomer, foldamer 20 μM, 16 h): had no effect | Inhibition of spontaneous Aβ42 fibrillization (Aβ42 [6]): ineffective | Inhibition of spontaneous Aβ42 fibrillization, different assembly conditions (Aβ42 [6]): had no effect

(Lys-Sal)4-CONH2
Inhibition of spontaneous Aβ42 fibrillization (Aβ42 [6]): ineffective

(Lys-Sal)4-COMe
Inhibition of spontaneous Aβ42 fibrillization (Aβ42 [6]): ineffective

(Cit-Sal)-(Arg-Sal)-(Cit-Sal)2-CONH2
Inhibition of spontaneous Aβ42 fibrillization (Aβ42 [6]): ineffective

Sal-(Lys-Sal)2-CONH2
Inhibition of spontaneous Aβ42 fibrillization (Aβ42 [6]): failed to inhibit assembly

Ac-Sal-(Lys-Sal)3-CONH2
Inhibition of FUS aggregation (FUS): did not inhibit FUS aggregation | Effect on A11-reactive Aβ43 conformers after 0.5 h (Aβ43 oligomers): had no effect | Effect on A11-reactive Aβ43 conformers after 4 h (Aβ43 oligomers): declined more extensively | Inhibition of spontaneous Aβ43 fibrillization (Aβ43 [1]; Aβ43 5 μM, foldamer 5, 10 or 20 μM, 0–8 h, EM 10 μM 4 h): did not block spontaneous Aβ43 fibrillization | Effect on A11-reactive Aβ42 conformers after 0.5 h (Aβ42 oligomers): had no effect | Effect on A11-reactive Aβ42 conformers after 4 h (Aβ42 oligomers): remained at higher levels | Effect on toxicity of Aβ42 conformers after 0.5 h of assembly [2]: had no effect | Effect on toxicity of Aβ42 conformers after 4 h of assembly [2]: enhanced | Inhibition of seeded Aβ42 fibrillization (Aβ42 [3]; Aβ42 5 μM plus seed 0.1 μM monomer, foldamer 5, 10 or 20 μM, 0–2 h, 25°C): inhibited seeded Aβ42 fibrillization at all concentrations tested | Inhibition of seeded Aβ42 fibrillization, different assembly conditions (Aβ42 [3]): inhibited | Disassembly of Aβ42 fibrils (Aβ42 fibrils): did not disassemble Aβ42 fibrils | Effect on toxicity of Aβ43 conformers after 0.5 h of assembly [4]: neither Sal-(Lys-Sal)3-CONH2 nor Ac-Sal-(Lys-Sal)3-CONH2 affected the toxicity | Effect on toxicity of Aβ43 conformers after 4 h of assembly [4]: neither Sal-(Lys-Sal)3-CONH2 nor Ac-Sal-(Lys-Sal)3-CONH2 affected the toxicity | Inhibition of seeded Aβ43 fibrillization (Aβ43 [5]; Aβ43 5 μM plus seed 0.1 μM monomer, foldamer 5, 10 or 20 μM, 0–2 h, 25°C, EM): did not inhibit seeded Aβ43 fibrillization | Inhibition of spontaneous Aβ42 fibrillization (Aβ42 [6]): strong inhibitors; also recorded: potent inhibitors | Inhibition of spontaneous Aβ42 fibrillization, different assembly conditions (Aβ42 [6]): inhibited

(Lys-Sal)4-COβAla
Inhibition of spontaneous Aβ42 fibrillization (Aβ42 [6]): ineffective

(Lys-Sal)3-CONH2
Inhibition of spontaneous Aβ42 fibrillization (Aβ42 [6]): failed to inhibit assembly

Ac-(Lys-Sal)2-CONH2
Inhibition of spontaneous Aβ42 fibrillization (Aβ42 [6]): failed to inhibit assembly
